Earlier results in US9491955B2, “Balanced myristate- and laurate-containing edible oil” (Brandeis University, priority 2008, dated 2016).

Tested on: rats
Settings: trimyristin component of a blend with peanut oil

CCCCCCCCCCCCCC(=O)OCC(COC(=O)CCCCCCCCCCCCC)OC(=O)CCCCCCCCCCCCC [trimyristin]
Decrease of cholesterol-raising capacity by interesterification with GNO: 34%
